Common to all, as to assay: DTP human tumour cell line panel, 48 h
Experiment [1] relates to CCRF-CEM.
Experiment [2] relates to SNB-19.
Experiment [3] relates to MDA-MB-435.
Experiment [4] concerns A498.
The subject of experiment [5] is SNB-75.
Experiment [6] relates to A549.
The test system of experiment [7] is OVCAR-5.
Experiment [8] relates to IGROV-1.
Experiment [9] deals with LOX IMVI.
Experiment [10] concerns ACHN.
Experiment [11] deals with CAKI-1.
Experiment [12] has as its system SN12C.
Experiment [13] concerns M14.
For experiment [14], the system named is NCI-H23.
For experiment [15], the system named is Malme-3M.
For experiment [16], the system named is KM12.
Experiment [17] relates to SK-MEL-2.
Experiment [18] concerns HT-29.
Experiment [19] has as its system U-251.

What is called GI50 is the concentration giving 50% growth inhibition.

Each structure is given as a SMILES string.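 How tested: cells in 96-well plates exposed to compound for 48 hours at five concentrations. GI50 is the concentration that inhibits growth by half.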 Activity calls are given as the source filed them. No stated cut-off is given here; in the data, active = GI50 up to about 1.1 µM and inactive = higher. Bounds are passed on as bounds.

For the molecule `COC1CCC(OC2CC(C3(C)CCC4(CC(O)C(C)C(C(C)/C=C(\C)C(=O)C(C)CC(C)C(=O)O)O4)O3)OC3(OC(C4OC(O)(CO)C(C)CC4C)CC3C)C2C)OC1C` (centres undefined), the GI50 was < 0.01 µM (active) in [1]; 0.0434 µM (active) in experiment [2]; 0.0923 µM (active) in experiment [3]; < 0.0169 µM (active) in [4]; 0.022 µM (active) in experiment [5]; < 0.0154 µM (active) in experiment [6]. For the same molecule, the GI50 in experiment [7] is 2.99 µM (inactive); in [8], 1.79 µM (inactive); in experiment [9], < 0.0253 µM (active); in experiment [10], < 0.038 µM (active); in experiment [11], 0.0982 µM (active); in [12], < 0.0319 µM (active). For the same molecule, the GI50 in experiment [13] is 0.122 µM (active); in [14], < 0.0345 µM (active); in experiment [15], < 0.0205 µM (active); in [16], 0.0753 µM (active); in experiment [17], 0.161 µM (active); in experiment [18], < 0.0313 µM (active). In addition, the GI50 in experiment [19] is < 0.0166 µM (active).

As for `Oc1ccc(Br)cc1/C=N/c1ccc(Oc2ccc(/N=C/c3cc(Br)ccc3O)cc2)cc1`, the GI50 in [1], in [2], in [4], in [5], in experiment [6] and in experiment [7] was > 19.6 µM (inactive) in each case. The GI50 in [8], in [9], in [10], in experiment [11], in experiment [12] and in experiment [13] was > 19.6 µM (inactive) throughout. Also, the GI50 in experiment [14], in [15], in experiment [16], in experiment [17], in experiment [18] and in experiment [19] was > 19.6 µM (inactive) each time.

With `CC(=O)OC1OC2C(NC(=O)OC(C)(C)C)C1CC2(OCc1ccccc1)OCc1ccccc1` (centres undefined), the GI50 was 18.3 µM (inactive) in experiment [1]; 45.1 µM (inactive) in [2]; 19.4 µM (inactive) in experiment [4]; 36.2 µM (inactive) in experiment [5]; 36.5 µM (inactive) in [6]; 28.3 µM (inactive) in experiment [7]. Besides, the GI50 in experiment [8] was 27 µM (inactive); in [9] it was > 10 µM (inactive); in experiment [10], 22.4 µM (inactive); in experiment [11] it was 32.4 µM (inactive); in experiment [12], 27.2 µM (inactive); in experiment [13], 20.5 µM (inactive). Besides, the GI50 in [14] is 18.8 µM (inactive); in experiment [15], 14.4 µM (inactive); in experiment [16], 27.8 µM (inactive); in experiment [17], 19.8 µM (inactive); in experiment [18] it was 33.7 µM (inactive); in [19], 14.4 µM (inactive).

Consider `CC1=C(C(=O)CC(=O)C(=O)Nc2ccccc2C)Sc2ccccc2N1`, for which the GI50 in [1] is > 57.1 µM (inactive); in [2], > 100 µM (inactive); in experiment [4] it was > 100 µM (inactive); in [5] it was > 53.8 µM (inactive); in experiment [6], > 69.3 µM (inactive); in [7], > 100 µM (inactive). For the same molecule, the GI50 in [8] is > 100 µM (inactive); in [9] it was > 42.4 µM (inactive); in experiment [10], > 100 µM (inactive); in experiment [11], > 100 µM (inactive); in [12] it was > 100 µM (inactive); in [13], > 100 µM (inactive). The GI50 in experiment [14] was > 100 µM (inactive); in experiment [15], > 100 µM (inactive); in experiment [16] it was > 100 µM (inactive); in experiment [17], > 100 µM (inactive); in [18] it was > 100 µM (inactive); in experiment [19] it was > 61.2 µM (inactive).

On to `O=C(O)c1cccc(S(=O)(=O)NN2C(=O)CSC2c2ccccc2Cl)c1` (centres undefined), for which the GI50 in [1], in experiment [2], in experiment [3], in [5], in experiment [6] and in experiment [7] was > 100 µM (inactive) each time. In addition, the GI50 in [8], in experiment [9], in experiment [10], in [11], in experiment [12] and in [13] was > 100 µM (inactive) throughout. Besides, the GI50 in [14], in [15], in experiment [16], in experiment [17], in experiment [18] and in [19] was > 100 µM (inactive) throughout.

Consider `CCCC(=O)N(C)/N=N/c1ccc(C(=O)OCC)cc1`, for which the GI50 was > 100 µM (inactive) in experiment [1]; > 100 µM (inactive) in [2]; 81.7 µM (inactive) in [4]; 37.9 µM (inactive) in [5]; > 100 µM (inactive) in [6]; > 100 µM (inactive) in experiment [7]. Besides, the GI50 in experiment [8], in experiment [9], in experiment [10], in [11], in experiment [12] and in experiment [13] was > 100 µM (inactive) throughout. For the same molecule, the GI50 in experiment [14], in experiment [15], in experiment [16], in experiment [17], in experiment [18] and in experiment [19] was > 100 µM (inactive) throughout.

On to `CCCN1CCC(=O)N(CCC(F)(F)C(F)(F)C(F)(F)C(F)(F)C(F)(F)C(F)(F)F)C1=S`, for which the GI50 in [1], in experiment [2], in [3], in [4], in experiment [5] and in [6] was > 100 µM (inactive) throughout. Further, the GI50 in [7], in experiment [8], in experiment [10], in [11], in experiment [12] and in experiment [13] was > 100 µM (inactive) each time. For the same molecule, the GI50 is > 100 µM (inactive) in experiment [14]; > 100 µM (inactive) in experiment [15]; 71 µM (inactive) in experiment [16]; 90.6 µM (inactive) in experiment [18]; > 100 µM (inactive) in experiment [19].

Turning to `COc1ccc(CC(C)N)cc1` (centres undefined) [PARA-METHOXYAMPHETAMINE], the GI50 in experiment [1], in experiment [2], in experiment [4], in [5], in [6] and in [7] was > 100 µM (inactive) throughout. In addition, the GI50 in experiment [8], in experiment [9], in experiment [10], in experiment [11], in experiment [12] and in experiment [13] was > 100 µM (inactive) each time. Further, the GI50 in experiment [14], in experiment [15], in [16], in experiment [17], in [18] and in experiment [19] was > 100 µM (inactive) throughout.

Values taken from ChEMBL document CHEMBL1201862, “PubChem BioAssay data set” (2004).
